Measurements as given in ChEMBL document CHEMBL1201862, “PubChem BioAssay data set” (2004).
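Where inhibition never reached the appropriate level, the endpoint shown equals the highest concentration tested. Otherwise, values were interpolated linearly from a five-concentration, 48-hour dose response in 96-well plates. GI50: concentration for 50% inhibition of growth.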 Active and inactive are the calls of the source. Cut-off read from the data, not from the text of the source: active = GI50 up to about 1.1 µM and inactive = higher.

What was measured:
Assay in all cases: growth of human tumour cells (NCI), 48 h
DMS-273 = system: DMS-273
NCI-H522 = system: NCI-H522
LXFL 529 = system: LXFL 529
U-251 = system: U-251
SF-268 = system: SF-268
HL-60 = system: HL-60
SK-MEL-2 = system: SK-MEL-2
KM12 = system: KM12
HOP-92 = system: HOP-92
HCT-15 = system: HCT-15
ACHN = system: ACHN
IGROV-1 = system: IGROV-1
RXF 393 = system: RXF 393
DMS-114 = system: DMS-114
SR = system: SR
SK-OV-3 = system: SK-OV-3
TK-10 = system: TK-10
COLO 205 = system: COLO 205
SN12C = system: SN12C
SK-MEL-28 = system: SK-MEL-28
RPMI-8226 = system: RPMI-8226
UO-31 = system: UO-31
CCRF-CEM = system: CCRF-CEM
Malme-3M = system: Malme-3M
K562 = system: K562
SNB-75 = system: SNB-75
UACC-257 = system: UACC-257
A498 = system: A498
SNB-78 = system: SNB-78
HOP-18 = system: HOP-18
SK-MEL-5 = system: SK-MEL-5
KM-20L2 = system: KM-20L2
SF-295 = system: SF-295
LOX IMVI = system: LOX IMVI
SNB-19 = system: SNB-19
NCI-H226 = system: NCI-H226
M14 = system: M14
HCC 2998 = system: HCC 2998
HT-29 = system: HT-29
HOP-62 = system: HOP-62
XF498 = system: XF498
NCI-H23 = system: NCI-H23
OVCAR-3 = system: OVCAR-3
NCI-H460 = system: NCI-H460
SW-620 = system: SW-620
UACC-62 = system: UACC-62
A549 = system: A549
786-0 = system: 786-0
MOLT-4 = system: MOLT-4
OVCAR-5 = system: OVCAR-5
HCT-116 = system: HCT-116
SF-539 = system: SF-539
CAKI-1 = system: CAKI-1
EKVX = system: EKVX
OVCAR-8 = system: OVCAR-8

## Cc1ccc(NC(=O)CCc2cc(C(C)(C)C)nc(S)n2)cc1C
DMS-273
  GI50: > 100 µM (inactive)
NCI-H522
  GI50: > 100 µM (inactive)
LXFL 529
  GI50: > 100 µM (inactive)
U-251
  GI50: > 100 µM (inactive)
SF-268
  GI50: > 100 µM (inactive)
HL-60
  GI50: > 100 µM (inactive)
SK-MEL-2
  GI50: > 100 µM (inactive)
KM12
  GI50: > 100 µM (inactive)
HOP-92
  GI50: > 100 µM (inactive)
HCT-15
  GI50: > 100 µM
ACHN
  GI50: > 100 µM (inactive)
IGROV-1
  GI50: > 100 µM (inactive)
RXF 393
  GI50: > 100 µM (inactive)
DMS-114
  GI50: > 100 µM (inactive)
SR
  GI50: > 100 µM (inactive)
SK-OV-3
  GI50: > 100 µM (inactive)
TK-10
  GI50: > 100 µM (inactive)
COLO 205
  GI50: > 100 µM (inactive)
SN12C
  GI50: > 100 µM (inactive)
SK-MEL-28
  GI50: > 100 µM (inactive)
RPMI-8226
  GI50: > 100 µM (inactive)
UO-31
  GI50: > 100 µM (inactive)
CCRF-CEM
  GI50: > 100 µM (inactive)
Malme-3M
  GI50: > 100 µM (inactive)
K562
  GI50: > 100 µM (inactive)
SNB-75
  GI50: > 100 µM (inactive)
UACC-257
  GI50: > 100 µM (inactive)
A498
  GI50: > 100 µM (inactive)
SNB-78
  GI50: > 100 µM (inactive)
HOP-18
  GI50: > 100 µM (inactive)
SK-MEL-5
  GI50: > 100 µM (inactive)
KM-20L2
  GI50: > 100 µM (inactive)
SF-295
  GI50: > 100 µM (inactive)
LOX IMVI
  GI50: > 100 µM (inactive)
SNB-19
  GI50: > 100 µM (inactive)
NCI-H226
  GI50: > 100 µM (inactive)
M14
  GI50: > 100 µM (inactive)
HCC 2998
  GI50: > 100 µM (inactive)
HT-29
  GI50: > 100 µM (inactive)
HOP-62
  GI50: > 100 µM (inactive)
XF498
  GI50: > 100 µM (inactive)
NCI-H23
  GI50: > 100 µM (inactive)
OVCAR-3
  GI50: > 100 µM (inactive)
NCI-H460
  GI50: > 100 µM (inactive)
SW-620
  GI50: > 100 µM (inactive)
UACC-62
  GI50: > 100 µM (inactive)
A549
  GI50: > 100 µM (inactive)
786-0
  GI50: > 100 µM (inactive)
MOLT-4
  GI50: > 100 µM (inactive)
OVCAR-5
  GI50: > 100 µM (inactive)
HCT-116
  GI50: > 100 µM (inactive)
SF-539
  GI50: > 100 µM (inactive)
CAKI-1
  GI50: > 100 µM (inactive)
EKVX
  GI50: > 100 µM (inactive)
OVCAR-8
  GI50: > 100 µM (inactive)
